Among the test systems are K-562 leukemia; NCI-H226 lung; NCI-H460 lung; RXF 393 renal; SK-MEL-2 melanoma; SN12C renal; U251 CNS; 786-0 renal; HOP-62 NSCLC; T-47D breast.
Common to all, as to assay: NCI-60 cell line screen, 48 h

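48-hour exposure; five concentrations; linearly interpolated endpoints. Definition used: TGI = concentration required for complete inhibition of growth.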

For the compound `CN(C)CCCNC(=O)N/N=C/c1ccccc1`, the TGI in the experiment on K-562 leukemia, with NCI-H226 lung, with NCI-H460 lung, in the experiment on RXF 393 renal, in the experiment on SK-MEL-2 melanoma and in the experiment with SN12C renal was over 100 µM each time. Moreover, in the experiment on U251 CNS, the TGI is over 100 µM.
`O=C(c1ccc([N+](=O)[O-])cc1)N1CCCC1`: the TGI in the experiment on 786-0 renal, with HOP-62 NSCLC, in the experiment with K-562 leukemia, with NCI-H226 lung, in the experiment on NCI-H460 lung and with RXF 393 renal was over 100 µM in each case. Moreover, the TGI in the experiment on SN12C renal, with T-47D breast and in the experiment with U251 CNS was over 100 µM throughout.
As to `O=c1c2ccc(Cl)cc2oc2c(CNc3ccc(S(=O)(=O)Nc4ncccn4)cc3)cccc12`, the TGI in the experiment on 786-0 renal, in the experiment with HOP-62 NSCLC, in the experiment on K-562 leukemia, with NCI-H226 lung, with SK-MEL-2 melanoma and in the experiment on SN12C renal was over 100 µM in each case. For the same compound, the TGI in the experiment with T-47D breast and in the experiment with U251 CNS was over 100 µM each time.
With `CC[C@]12C=CCN3CCC4(c5cc([C@@]6(C(=O)OC)CC7CN(CCc8c6[nH]c6ccccc86)CC6CCCCC67)c(OC)cc5N(C)C4[C@](O)(C(=O)OC)C1OC(C)=O)[C@@H]32` (some centres undefined), the TGI with 786-0 renal was 11 µM; in the experiment with HOP-62 NSCLC it was 6.07 µM; in the experiment with K-562 leukemia, over 21.7 µM; in the experiment on NCI-H226 lung, 2.42 µM; with NCI-H460 lung, 0.225 µM; with RXF 393 renal, 16.9 µM. In addition, the TGI in the experiment on SK-MEL-2 melanoma was 0.145 µM; with SN12C renal it was 17.5 µM; with U251 CNS it was under 0.01 µM.
Turning to `CC(C)=C/C(CC(O)(C(F)(F)F)C(F)(F)F)=N\O`, the TGI in the experiment with 786-0 renal, in the experiment on HOP-62 NSCLC, with K-562 leukemia, in the experiment with NCI-H226 lung, in the experiment on NCI-H460 lung and in the experiment on RXF 393 renal was over 100 µM each time. Moreover, the TGI in the experiment on SN12C renal, with T-47D breast and in the experiment with U251 CNS was over 100 µM each time.
Take `CCOC(=O)c1c(SCc2cc(=O)[nH]c(=O)[nH]2)n(-c2ccccc2)c(=S)n(-c2ccccc2)c1=O`: the TGI in the experiment with 786-0 renal, in the experiment with HOP-62 NSCLC, in the experiment on K-562 leukemia, with NCI-H460 lung, in the experiment with RXF 393 renal and in the experiment with SK-MEL-2 melanoma was over 100 µM throughout. Moreover, the TGI with SN12C renal, in the experiment on T-47D breast and in the experiment on U251 CNS was over 100 µM each time.
Consider `O=C1c2cc3c(cc2CC12Cc1ccc4c(c1C2=O)CCC4)CCC3` (centres undefined), for which the TGI in the experiment with 786-0 renal, with HOP-62 NSCLC, in the experiment on K-562 leukemia, in the experiment on NCI-H460 lung, in the experiment on RXF 393 renal and in the experiment on SK-MEL-2 melanoma was over 100 µM throughout. Also, the TGI in the experiment on T-47D breast and with U251 CNS was over 100 µM throughout.
As to `O=c1c2c3c(sc2nc2n1N=C(c1ccc(Br)cc1)CS2)CCCC3`, the TGI with 786-0 renal, with HOP-62 NSCLC, in the experiment on K-562 leukemia, in the experiment with NCI-H226 lung, in the experiment with NCI-H460 lung and with RXF 393 renal was over 100 µM each time. The TGI with SN12C renal, in the experiment with T-47D breast and with U251 CNS was over 100 µM throughout.
In the case of `CCN(CC)C(=S)N/N=C(/c1ccccc1)c1ccccn1`, the TGI in the experiment on 786-0 renal was 1.19 µM; in the experiment on HOP-62 NSCLC, 13.6 µM; in the experiment with K-562 leukemia, over 100 µM; with NCI-H226 lung, 7.65 µM; in the experiment with NCI-H460 lung, 0.385 µM; in the experiment on RXF 393 renal it was 8.63 µM. For the same compound, the TGI in the experiment with SK-MEL-2 melanoma is 26.2 µM; with SN12C renal, 1.35 µM; in the experiment on U251 CNS, 18.8 µM.
As to `CC(=O)/C(=N\Nc1ccc(Cl)cc1)C(C)=Nc1ccc(C)cc1`, the TGI in the experiment with 786-0 renal was over 100 µM; in the experiment with K-562 leukemia, over 100 µM; with NCI-H226 lung it was 83.7 µM; in the experiment on RXF 393 renal, 95.8 µM; with SK-MEL-2 melanoma, 40 µM; in the experiment on SN12C renal it was over 100 µM. Also, the TGI with T-47D breast and in the experiment on U251 CNS was over 100 µM throughout.
Take `CC[C@H](NC(=O)OC(C)(C)C)C(=O)NCP(=O)(OCc1ccc([N+](=O)[O-])cc1)OCc1ccc([N+](=O)[O-])cc1`: the TGI in the experiment with 786-0 renal, in the experiment on HOP-62 NSCLC, in the experiment on NCI-H226 lung, with NCI-H460 lung, with SK-MEL-2 melanoma and in the experiment with SN12C renal was over 100 µM in each case. Further, the TGI in the experiment with T-47D breast is over 100 µM; in the experiment with U251 CNS, 97.1 µM.
For the compound `CCn1ncc2c(=O)n3ncn(-c4ccc(Br)cc4)c3nc21`, the TGI in the experiment with 786-0 renal, in the experiment with HOP-62 NSCLC, in the experiment on K-562 leukemia, with NCI-H226 lung, in the experiment with RXF 393 renal and in the experiment on SK-MEL-2 melanoma was over 100 µM in each case. In addition, the TGI in the experiment on SN12C renal, with T-47D breast and in the experiment with U251 CNS was over 100 µM each time.
With `O=C(C(=C(I)I)c1ccccc1)c1ccccc1`, the TGI in the experiment with HOP-62 NSCLC is 37.7 µM; in the experiment with K-562 leukemia, 21.4 µM; in the experiment with NCI-H460 lung, over 100 µM; with SK-MEL-2 melanoma it was 38 µM; in the experiment on SN12C renal it was over 100 µM.
On to `Nc1c(N2CCOCC2)c(=O)nc2[nH]/c(=C\c3ccccc3O)c(=O)n12`, for which the TGI in the experiment on 786-0 renal, with K-562 leukemia, in the experiment with NCI-H226 lung, with NCI-H460 lung, in the experiment with RXF 393 renal and in the experiment on SN12C renal was over 100 µM in each case. Besides, the TGI in the experiment with T-47D breast and with U251 CNS was over 100 µM in each case.
For `CCCCNC(=O)Cn1c2ccc(Br)cc2c2nc3ccccc3nc21`, the TGI with 786-0 renal, with HOP-62 NSCLC, in the experiment with K-562 leukemia, in the experiment on NCI-H226 lung, in the experiment on RXF 393 renal and in the experiment on SK-MEL-2 melanoma was over 100 µM each time. Moreover, the TGI with SN12C renal, in the experiment with T-47D breast and with U251 CNS was over 100 µM each time.

(Values after PubChem BioAssay (NCI).)
